Reference: US20220275534A1, “Peptide Library Production Method” (The University of Tokyo, priority 2018, published 2022)
Non-standard residues stand in square brackets, D forms with d. No end group written: not given here. *: point of attachment. prenyl = prenyl group added to Trp by KgpF, CC(C)=CC*

Columns and labels:
KgpF [1] = conditions: literature finding; cited from earlier work
MetAP1 = MetAP1 (Homo sapiens, UniProt P53582); assay: MetAP1 inhibition test of prenylated cyclic peptide (probe fluorescence); type: biochemical; conditions: prenylated peptide at 1 μM, 5 μM or 10 μM; cofactor Mn2+ or Co2+ 100 μM; MetAP1 1 μM; 37° C., 120 min (FIG. 13)
Experimental: A MetAP1 inhibition test was performed in vitro using the prenylated Met2, Met3a-L, and Met3-1 at concentrations of 1 μM, 5 μM or 10 μM in the presence of a MetAP1 cofactor Mn^2+ or Co^2+. In the test, enzymatic activity was measured by detecting probe fluorescence, that is, fluorescence emitted depending on the enzymatic activity of MetAP1.
(Conditions) • Scale: 20 μL • Cyclic peptide: 1, 5, 10 μM • MnCl2 or CoCl2: 100 μM • MetAP1 enzymatic activity probe: 1 μM • MetAP1: 1 μM • Tris (pH7.6): 25 mM • NaCl: 75 mM • Reaction: 37° C., 120 min.
After the reaction, the fluorescence intensity of the probe was measured using a plate reader.

KgpF [2] = assay: Prenylation of artificial cyclic peptides with 160 μM KgpF at 0° C., 20 hours (Conditions 13/14 and 19/20; Examples 10, 14, 19; Tables 6 and 18); type: biochemical, Microcystis aeruginosa; design: key: 5: strong intensity; 4: medium intensity; 3: weak intensity; 2: very weak intensity; 1: no peak; N/A: not observed; conditions: Table 18; Conditions 13 and 14 (160 μM KgpF, 0° C., 20 hours); NSGGVS added to C terminal
Experimental: The artificial cyclic peptides Clone-M1 to M9 shown below were obtained by translation and synthesis in the artificial translation system (Conditions 13) developed by the present inventors. The peptides thus obtained were then reacted with 160 μM KgpF in the system shown in (Conditions 14) at 0° C. for 20 hours.
(Conditions 13) • FIT system: v8s/v11.0 • 19aa-Met: 0.5 mM • ClAc-D-Tyr-tRNA^fMetCUA: 90 μM • Reaction: 37° C., 60 min. • Scale: 2.5 μL scale
After the above reaction was performed, the reaction product was incubated at 25° C. for 12 minutes.
Then, a cyclization reaction was performed under the following conditions. • Translated mixture amount: 2.5 μL (mixture obtained by the above reaction) • EDTA: 18 mM • Reaction: 42° C., 60 min. • Scale: 2.75 μL scale
(Conditions 14) • Translated mixture amount: 2.75 μL (mixture obtained under (Conditions 13)) • KOH: 6.0 mM • Mg(OAc)2: 9.0 mM • Tris-HCl (pH 8.3) 15 mM • KgpF: 160 μM • DMAPP: 2 mM • Reaction: 0° C., 20 hours
The artificial cyclic peptides shown below were obtained by translation and synthesis in the artificial translation system (Conditions 19) developed by the present inventors. The peptides thus obtained were then reacted with 160 μM KgpF in the system shown in (Conditions 20) at 0° C. for 20 hours.
(Conditions 19) • FIT system: v8s/11.0 • 19aa-Met: 0.5 mM • ClAc-D-Tyr-tRNA^fMetCUA: 90 μM • Reaction: 37° C., 60 min. • Scale: 2.5 μL scale
(Conditions 20) • Translated mixture amount: 2.75 μL (mixture obtained under (Conditions 19)) • KOH: 6.0 mM • Mg(OAc)2: 9.0 mM • Tris-HCl (pH 8.3): 15 mM • KgpF: 160 μM • DMAPP: 2 mM • Reaction: 0° C., 20 hours
Then, the compound library was provided for a step of screening cyclic peptides having interaction with an enzyme MetAP1 (Human) as in the scheme shown in FIG. 8. It has been confirmed that with regards to some of the peptides shown in FIG. 10, peptides having these sequences are modified by prenylation as shown in Table 18 by bringing them into contact with KgpF under conditions shown in (Conditions 13) and (Conditions 14).
Target sequence in this assay (as listed by the source): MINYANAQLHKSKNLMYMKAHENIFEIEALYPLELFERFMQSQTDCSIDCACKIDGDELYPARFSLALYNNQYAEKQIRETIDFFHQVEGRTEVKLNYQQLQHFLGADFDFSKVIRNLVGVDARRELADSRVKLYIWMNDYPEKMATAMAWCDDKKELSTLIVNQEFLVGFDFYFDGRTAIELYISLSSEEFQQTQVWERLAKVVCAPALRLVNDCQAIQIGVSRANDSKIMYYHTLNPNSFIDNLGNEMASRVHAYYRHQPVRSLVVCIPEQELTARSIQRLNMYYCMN

Compound	prenylation by KgpF (KgpF [1])	inhibition of the enzymatic activity of MetAP1 (MetAP1)	Peak intensity, The number of prenyl groups added 0 (KgpF [2])	Peak intensity, The number of prenyl groups added 1 (KgpF [2])
O=C(N[C@@H](Cc1c[nH]c2ccccc12)C(=O)O)OCC1c2ccccc2-c2ccccc21 [Fmoc-Trp-OH]	low efficiency			
Cyclic [WLNGDNNWSTP]: main-chain cyclized peptide of 11 residues formed from precursor peptide KgpE; natural substrate giving Kawaguchipeptin A (SEQ ID NO: 386) (main-chain cyclized)	prenylates two Trp residues			
Met3: prenylated cyclic peptide identified by screening with MetAP1 as a target (Ac-[dY]KRKAW(prenyl)ICQTAVYCNSGGVS; thioether (positions not given here); not fully specified (C-terminus))		inhibit the enzymatic activity of MetAP1	2	5
Met3a-L: cyclic peptide SEQ ID NO: 362 from MetAP1 screening, Fmoc solid-phase synthesis, prenylated with KgpF (YKRKAWLC; also: cyclic, ring not given here, prenylated with KgpF)		inhibit the enzymatic activity of MetAP1		
